Reference: patent US9453038B2, “Glucokinase activator compounds, compositions containing such compounds, and methods of treatment” (Merck Sharp & Dohme Corp., priority 2012, dated 2016)
Where two headings read alike, the source gives them in different places.

Target: Recombinant human liver glucokinase (FLAG fusion protein) (Homo sapiens (Human), UniProt P35557)
Assay: glucokinase (GK) activation assay, Thio-NADH formation coupled to G6PDH, absorbance at 405 nm
Assay type: biochemical
Details: 2.5 mM Glu; for EC50: 30° C.; for Emax: OD value of DMSO control regarded as 100%
Source text: The glucokinase activity can, for instance, be determined without directly measuring glucose-6-phosphate by measuring the amount of Thio-NADH generated during the production of phosphogluconolactone from glucose-6-phosphate by a reporter enzyme glucose-6-phosphate dehydrogenase.
To test the exemplified compounds, the following assay was employed. Recombinant human liver glucokinase was expressed as a FLAG fusion protein in E. coli, and purified on ANTIFLAG M2 AFFINITY GEL (Sigma). The assay was carried out at 30° C. in a 96-well plate. In the plate was distributed 69 μl each of assay buffer (25 mM Hepes Buffer: pH=7.2, 2 mM MgCl2, 1 mM ATP, 0.5 mM TNAD, 1 mM dithiothreitol), to which was added 1 μl of a DMSO solution of the compound or DMSO as control. Then, 20 μl of pre-ice-cooled enzyme mixture (FLAG-GK, 20 U/ml G6PDH) was distributed thereto, to which was added 10 μl of 25 mM glucose as substrate to initiate the reaction (final glucose concentration=2.5 mM). After starting the reaction, the absorbance at 405 nm was measured every 30 seconds for 10 minutes to evaluate the compound based on the initial increase for 5 minutes. FLAG-GK was added so that the increase of absorbance after 5 minutes fell between 0.05 to 0.1 in the presence of 1% DMSO.
The OD values of the respective compounds were measured in the respective concentrations, wherein the OD value of DMSO as control is regarded as 100%. From the OD values at the respective concentrations, Emax (%, 2.5 mM Glu) and EC50 (nM, 2.5 mM Glu) were calculated and used as indicators of the GK activation capability of the compounds. According to the above assay, the GK activation capability of the exemplified compounds of the present invention was determined. […] Where different enantiomers of the same compound were tested, two numbers are provided. Where 3 numbers are provided, for example, Ex. #30, data for the racemic form is also shown.

Chain of Recombinant human liver glucokinase (FLAG fusion protein) (P35557 other isoform, or with tags, fused parts or gaps): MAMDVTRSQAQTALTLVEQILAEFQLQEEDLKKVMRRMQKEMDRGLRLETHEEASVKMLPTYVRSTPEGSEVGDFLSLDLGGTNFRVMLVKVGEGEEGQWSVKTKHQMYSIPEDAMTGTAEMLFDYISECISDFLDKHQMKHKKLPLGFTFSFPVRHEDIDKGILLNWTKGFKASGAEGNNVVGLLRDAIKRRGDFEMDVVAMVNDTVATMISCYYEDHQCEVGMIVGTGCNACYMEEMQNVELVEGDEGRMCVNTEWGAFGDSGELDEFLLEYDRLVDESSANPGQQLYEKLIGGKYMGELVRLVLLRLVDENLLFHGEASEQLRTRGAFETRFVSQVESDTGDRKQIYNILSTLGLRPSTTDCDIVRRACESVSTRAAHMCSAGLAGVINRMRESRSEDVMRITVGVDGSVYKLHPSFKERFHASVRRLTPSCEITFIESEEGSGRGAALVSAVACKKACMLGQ

| EC50 [µM] | Emax (read-out: Emax) [%] | Emax [%] | Compound |
| --- | --- | --- | --- |
| 0.0019 | 624 | – | CCS(=O)(=O)c1ccc(Oc2cc3cc(-c4ccc(CCC(=O)OC)cn4)[nH]c3cc2C2CCC(=O)N2C)cc1 (stereo not shown) [Example 1, METHYL 3-(6-{5-[4-(ETHYLSULFONYL)PHENOXY]-6-(1-METHYL-5-OXOPYRROLIDIN-2-YL)-1H-INDOL-2-YL}PYRIDIN-3-YL)PROPANOATE] |
| 0.0534 | 652 | – | CCS(=O)(=O)c1ccc(Oc2cc3cc(-c4ccc(CCC(=O)O)cn4)[nH]c3cc2C2CCC(=O)N2C)cc1 (stereo not shown) [Example 2, 3-(6-{5-[4-(ETHYLSULFONYL)PHENOXY]-6-(1-METHYL-5-OXOPYRROLIDIN-2-YL)-1H-INDOL-2-YL}PYRIDIN-3-YL)PROPANOIC ACID] |
| 0.797 | 628 | – | CCS(=O)(=O)c1ccc(Oc2cc3cc(-c4ccc(C(F)(F)F)cn4)[nH]c3cc2C2CCC(=O)N2CC(=O)O)cc1 (stereo not shown) [Example 3, (2-{5-[4-(ETHYLSULFONYL)PHENOXY]-2-[5-(TRIFLUOROMETHYL)PYRIDIN-2-YL]-1H-INDOL-6-YL}-5-OXOPYRROLIDIN-1-YL)ACETIC ACID] |
| – | 455 | 453.8 | COC(=O)CCc1ccc(Oc2cc3cc(-c4ccc(C(F)(F)F)cn4)[nH]c3cc2C2CCC(=O)N2C)cc1 (stereo not shown) [Example 4, METHYL 3-[4-({6-(1-METHYL-5-OXOPYRROLIDIN-2-YL)-2-[5-(TRIFLUORO-METHYL)PYRIDIN-2-YL]-1H-INDOL-5-YL}OXY)PHENYL]PROPIONATE] |
| 0.774 | 15.7 | – | CS(=O)(=O)c1ccc(Oc2cc3cc(-c4ccc(CCC(=O)O)cn4)[nH]c3cc2Oc2ccccc2F)cc1 [Example 7, 3-(6-{6-(2-FLUOROPHENOXY)-5-[4-(METHYLSULFONYL)PHENOXY]-1H-INDOL-2-YL}PYRIDIN-3-YL)PROPANOIC ACID] |
| 0.116 | 501 | – | CN1C(=O)CCC1c1cc2[nH]c(-c3ccc(C(=O)NCCC(=O)O)cn3)cc2cc1Oc1ccc(S(C)(=O)=O)nc1 (stereo not drawn) [Example 8, N-({6-[6-(1-METHYL-5-OXOPYRROLIDIN-2-YL)-5-{[6-(METHYL-SULFONYL)PYRIDIN-3-YL]OXY}-1H-INDOL-2-YL]PYRIDIN-3-YL}-CARBONYL)-β-ALANINE] |
| 0.533 | – | – | CS(=O)(=O)c1ccc(Oc2cc3cc(-c4ccc(CCC(=O)O)cn4)[nH]c3nc2CN2CCCC2=O)cn1 [Example 9, 3-[6-(5-{[6-(METHYLSULFONYL)PYRIDIN-3-YL]OXY}-6-[(2-OXOPYRROLIDIN-1-YL)METHYL]-1H-PYRROLO[2,3-B]PYRIDIN-2-YL)PYRIDIN-3-YL]PROPANOIC ACID] |
| 0.0139 | 419 | – | COC(=O)CCc1ccc(-c2cc3cc(Oc4ccc(C(=O)N5CCC5)nc4)c(C4CCCN4C(C)=O)cc3[nH]2)nc1 (stereo not shown) [Example 10, METHYL 3-{6-[6-(1-ACETYLPYRROLIDIN-2-YL)-5-{[6-(AZETIDIN-1-YLCARBONYL)PYRIDIN-3-YL]OXY}-1H-INDOL-2-YL]PYRIDIN-3-YL}PROPANOATE] |
| 0.187 | 410 | – | CC(=O)N1CCCC1c1cc2[nH]c(-c3ccc(CCC(=O)O)cn3)cc2cc1Oc1ccc(C(=O)N2CCC2)nc1 (stereo not shown) [Example 11, 3-{6-[6-(1-ACETYLPYRROLIDIN-2-YL)-5-{[6-(AZETIDIN-1-YLCARBONYL)PYRIDIN-3-YL]OXY}-1H-INDOL-2-YL]PYRIDIN-3-YL}PROPANOIC ACID] |
| 0.0536 | 614 | – | CCS(=O)(=O)c1ccc(Oc2cc3cc(-c4ccc(P(C)(=O)O)cn4)[nH]c3cc2C2CCC(=O)N2C)cc1 (stereo not shown) [Example 12, (6-(5-(4-(ETHYLSULFONYL)PHENOXY)-6-(1-METHYL-5-OXOPYRROLIDIN-2-YL)-1H-INDOL-2-YL)PYRIDIN-3-YL)(METHYL)PHOSPHINIC ACID] |
| 0.108 | 643 | – | CN1C(=O)CCC1c1cc2[nH]c(-c3ccc(CC(C)(C)C(=O)O)cn3)cc2cc1Oc1ccc(S(C)(=O)=O)nc1 (stereo not shown) [Example 17, 2,2-dimethyl-3-(6-(6-(1-methyl-5-oxopyrrolidin-2-yl)-5-((6-(methylsulfonyl)pyridin-3-yl)oxy)-1H-indol-2-yl)pyridin-3-yl)propanoic acid] |
| 0.081 | 612 | – | CN1C(=O)CCC1c1cc2[nH]c(-c3ccc(OCC(=O)O)cn3)cc2cc1Oc1ccc(S(C)(=O)=O)nc1 (stereo not shown) [Example 18, 2-((6-(6-(1-methyl-5-oxopyrrolidin-2-yl)-5-((6-(methylsulfonyl)pyridin-3-yl)oxy)-1H-indol-2-yl)pyridin-3-yl)oxy)acetic acid] |
| 0.0718 | 431 | – | COCc1ccc(Oc2cc3cc(-c4ccc(CCC(=O)O)cn4)[nH]c3cc2C2CCC(=O)N2C)cn1 (stereo not shown) [Example 19, 3-(6-(5-((6-(methoxymethyl)pyridin-3-yl)oxy)-6-(1-methyl-5-oxopyrrolidin-2-yl)-1H-indol-2-yl)pyridin-3-yl)propanoic acid] |
| 0.0639 | 521 | – | CN1C(=O)CCC1c1cc2[nH]c(-c3ccc(C(F)(F)F)cn3)cc2cc1Oc1ccc(CC(=O)O)cc1 (stereo not shown) [Example 20, 2-(4-((6-(1-methyl-5-oxopyrrolidin-2-yl)-2-(5-(trifluoromethyl)pyridin-2-yl)-1H-indol-5-yl)oxy)phenyl)acetic acid] |
| 0.0391 | 628 | – | CN1C(=O)CCC1c1cc2[nH]c(-c3cnccn3)cc2cc1Oc1ccc(CCC(=O)O)cc1 (stereo not shown) [Example 21, 3-(4-((6-(1-methyl-5-oxopyrrolidin-2-yl)-2-(pyrazin-2-yl)-1H-indol-5-yl)oxy)phenyl)propanoic acid] |
| 0.456 | 410 | – | CN1C(=O)CCC1c1cc2[nH]c(-c3ccccc3)cc2cc1Oc1ccc(CCC(=O)O)cc1 (stereo not shown) [Example 22, 3-(4-((6-(1-methyl-5-oxopyrrolidin-2-yl)-2-phenyl-1H-indol-5-yl)oxy)phenyl)propanoic acid] |
| 0.0021 | 574 | – | COC(=O)CCc1ccc(Oc2cc3cc(-c4cnccn4)[nH]c3cc2C2CCC(=O)N2C)cc1 (stereo not shown) [Example 23, methyl 3-(4-((6-(1-methyl-5-oxopyrrolidin-2-yl)-2-(pyrazin-2-yl)-1H-indol-5-yl)oxy)phenyl)propanoate] |
| 0.021 | 649 | – | COC(=O)Cc1ccc(Oc2cc3cc(-c4ccccn4)[nH]c3cc2C2CCC(=O)N2C)cc1 (stereo not shown) [Example 25, methyl 2-(4-((6-(1-methyl-5-oxopyrrolidin-2-yl)-2-(pyridin-2-yl)-1H-indol-5-yl)oxy)phenyl)acetate] |
| 0.0043 | 545 | – | COC(=O)CCc1ccc(Oc2cc3cc(-c4ccccn4)[nH]c3cc2C2CCC(=O)N2C)cc1 (stereo not shown) [Example 26, methyl 3-(4-((6-(1-methyl-5-oxopyrrolidin-2-yl)-2-(pyridin-2-yl)-1H-indol-5-yl)oxy)phenyl)propanoate] |
| 0.0238 | 630 | – | CN1C(=O)CCC1c1cc2[nH]c(-c3ccccn3)cc2cc1Oc1ccc(CC(=O)O)cc1 (stereo not shown) [Example 27, 2-(4-((6-(1-methyl-5-oxopyrrolidin-2-yl)-2-(pyridin-2-yl)-1H-indol-5-yl)oxy)phenyl)acetic acid] |
| 0.0491 | 506 | – | CN1C(=O)CCC1c1cc2[nH]c(-c3nc(CC(=O)O)c(Cl)s3)cc2cc1Oc1ccc(S(C)(=O)=O)nc1 (stereo not shown) [Example 30, 2-(5-chloro-2-(6-(1-methyl-5-oxopyrrolidin-2-yl)-5-((6-(methylsulfonyl)pyridin-3-yl)oxy)-1H-indol-2-yl)thiazol-4-yl)acetic acid] |
| 0.0688 | 599 | – | CN1C(=O)CCC1c1cc2[nH]c(-c3ncc(CCC(=O)O)s3)cc2cc1Oc1ccc(S(C)(=O)=O)nc1 (stereo not shown) [Example 31, 3-(2-(6-(1-methyl-5-oxopyrrolidin-2-yl)-5-((6-(methylsulfonyl)pyridin-3-yl)oxy)-1H-indol-2-yl)thiazol-5-yl)propanoic acid] |
| 0.0651 | 566 | – | COC(=O)Cc1csc(-c2cc3cc(Oc4ccc(S(C)(=O)=O)cc4)c(C4CCC(=O)N4C)cc3[nH]2)n1 (stereo not shown) [Example 32, methyl 2-(2-(6-(1-methyl-5-oxopyrrolidin-2-yl)-5-(4-(methylsulfonyl)phenoxy)-1H-indol-2-yl)thiazol-4-yl)acetate] |
| 0.0474 | 586 | – | CN1C(=O)CCC1c1cc2[nH]c(-c3nc(CC(=O)O)c(Cl)s3)cc2cc1Oc1ccc(S(C)(=O)=O)cc1 (stereo not shown) [Example 33, 2-(5-chloro-2-(6-(1-methyl-5-oxopyrrolidin-2-yl)-5-(4-(methylsulfonyl)phenoxy)-1H-indol-2-yl)thiazol-4-yl)acetic acid] |
| 0.118 | 606 | – | CN1C(=O)CCC1c1cc2[nH]c(-c3nc(CC(=O)O)cs3)cc2cc1Oc1ccc(S(C)(=O)=O)cc1 (stereo not shown) [Example 34, 2-(2-(6-(1-methyl-5-oxopyrrolidin-2-yl)-5-(4-(methylsulfonyl)phenoxy)-1H-indol-2-yl)thiazol-4-yl)acetic acid] |
